Source: patent publication US8852629B2, “Drug delivery system for hydrophobic drugs” (Valeant Pharmaceuticals International, Inc., priority 2001, dated 2014)

What was measured:
[1] = storage stability (potency) of cryodesiccated MA composition; type: physicochemical; conditions: room temperature
From the text: Once formulated, the MA of the invention may be freeze-dried for long-term storage if desired. […] If the composition is freeze-dried, it may be packed in vials for subsequent reconstitution with a suitable aqueous solution, such as sterile water or sterile water containing a saccharide and/or other suitable excipients, just prior to use. For example, reconstitution may be by simply adding water for injection just prior to administration.

[2] = lability in an aqueous environment; type: physicochemical; conditions: must be lyophilized for storage
From the text: It has been a challenge to find suitable pharmaceutical formulations for hydrophobic polypyrrolic macrocyle based photosensitizers that can be filter sterilized and freeze dried, and can also be rapidly reconstituted in an aqueous medium prior to administration, while retaining a small particle size after rehydration. Photosensitive compounds such as verteporfin (BPD-MA) and QLT 0074 (EA6) must be lyophilized for storage, because they are labile in an aqueous environment.

In the case of “benzoporphyrin derivative monoacid ring A [BPD-MA]”, the “period over which potency was maintained” value [1] is reported as “at least nine” and the “stability in an aqueous environment” value [2] is reported as “labile”.
